Measured values from US7241581B2, “Methods of identifying compounds that modulate IL-4 receptor-mediated IgE synthesis utilizing a c-MYC protein” (Rigel Pharmaceuticals, Inc., priority 2002, dated 2007).

How the values were obtained:
[1] = tested on: IL-4 induced germline ε transcription; assay: A5T4 reporter line screening of single cell clones (+Dox vs -Dox, IL-4 stimulated, GFP by FACS); assay type: cell-based, human; settings: geometric mean GFP fluorescence +IL-4/+Dox to +IL-4/-Dox; IL-4 60 U/mL, Dox 10 ng/ml; library clone
Text: Peptide BR10A1 wt was identified by screening a retroviral library of random peptide 20-mers for the ability to inhibit IL-4 induced germline ε transcription using the HBEGF2a/diphtheria dual reporter phenotypic screening system described in WO 01/31232. To construct the random library, A5T4 reporter cells (described in more detail below) were infected with an infectious retroviral library of random peptide 20-mers (prepared as described in WO 97/27213; see also WO 01/34806 at page 39, line 36 through page 40, line 19). The retroviral vector used includes a gene encoding blue fluorescent protein (BFP) fused upstream of the region encoding the random peptide via a linker region encoding an α-helical peptide linker (expression fusion product is referred to as “BFP-peptide”). Expression of the BFP-peptide product is controlled by a promoter sensitive to the tetracycline-regulated transactivator such that expression of the BFP-peptide is regulated by tetracycline (Tet) or doxycycline (Dox). See U.S. patent application Ser. No. 10/096,339, entitled “Methods and Compositions for Screening for Altered Cellular Phenotypes,” filed on Mar. 8, 2002. […]

[2] = tested on: IL-4 induced germline ε transcription; assay: Re-infection assay in naive A5T4 cells (BFP- vs BFP+ populations, GFP by FACS); assay type: cell-based, human; settings: geometric mean GFP fluorescence of BFP- population divided by BFP+ population, IL-4 60 U/mL, 3 days
Protocol: The ability of peptide BR10A1 wt to inhibit germline ε transcription was confirmed in naive cells. Briefly, Phoenix cells were transfected with a retroviral vector encoding a BFP-BR10A1 wt peptide fusion as described in WO 99/58663 and WO 97/27213. Naïve A5T4 cells were infected with the resultant virions and grown for 3 days. The infected cells were stimulated with IL-4 (60 U/mL) and, after 3 days, the cells were assessed by FACS for BFP and GFP. […] The BFP fluorescence data corresponding to the BFP^+ and BFP^− populations are provided in Panel A. The GFP fluorescence data corresponding to the BFP^+ and BFP^− populations are presented in Panel B. The reporter ratio for this purpose is determined as the geometric mean of the GFP fluorescence of the BFP^− population divided by the geometric mean of the GFP fluorescence of the BFP^+ population. The reporter ratio for the BR10A1 in this re-infection assay was 1.27.

[3] = tested on: endogenous germline α promoter; assay: TAQMAN assay of endogenous germline α promoter transcription in ST486 cells; assay type: cell-based; settings: ST486 cells stimulated with TGF-β 40 ng/ml; average of 3 values
Protocol: The assay was similar to that described in the immediately preceding section, except that ST486 cells (ATCC # CRL-1647) engineered to express the tetracycline-regulated transactivator were infected and the infected cells were stimulated with TGF-β (40 ng/ml; Peprotech). The primers and probe, which are specific for the transcription product driven by the ST486 endogenous α promoter, were as follows (the probe was labeled at the 5′-end with Fam and at the 3′-end with Tamra): […]

MQRRESCITRSVEEGWGLFYLGP (peptide encoded by random oligo-BR10A1wt) [wild-type peptide from random library, expressed in cells as BFP-peptide fusion]
Reporter Ratio [1]: 1.26 | Reporter Ratio [2]: 1.27 | endogenous α inhibition ratio [3]: 0.87
